The record followed here is article PMC10253522 (2023).

In this assay the test system is aptamer beacon probe (ABP) (DNA, aptamer) ATTCTCTCACCTGGGGGAGTATTGCGGAGGAAGGTAT
The assay can be described thus: FAM-Dabcyl fluorescence quenching and fluorescence melting. As to conditions: 100 mM NaCl, 5 mM MgCl2, 20 mM Tris-HCl pH 7.4, 23 and 40 °C.

On to `Nc1ccn([C@@H]2O[C@H](COP(=O)(O)OP(=O)(O)OP(=O)(O)O)[C@@H](O)[C@H]2O)c(=O)n1`, for which, where the note is “625 µM CTP, no complex in melting, residual quenching”, the binding entry was “weak”.
As to `Nc1nc2c(ncn2[C@@H]2O[C@H](COP(=O)(O)OP(=O)(O)OP(=O)(O)O)[C@@H](O)[C@H]2O)c(=O)[nH]1`, for the setting “625 µM GTP, no complex in melting, residual quenching”, the binding result is recorded as “weak”.
Turning to `Nc1ncnc2c1ncn2[C@@H]1O[C@H](COP(=O)(O)OP(=O)(O)OP(=O)(O)O)[C@@H](O)[C@H]1O`, under “133 nM probe, up to 625 µM ATP”, the binding entry is “yes”.
In the case of `O=c1ccn([C@@H]2O[C@H](COP(=O)(O)OP(=O)(O)OP(=O)(O)O)[C@@H](O)[C@H]2O)c(=O)[nH]1`, the binding entry (625 µM UTP, no complex in melting, residual quenching) is recorded as “weak”.
